Values joined by “and” are separate entries in the source; they are usually repeats but may differ in a detail not shown here. Equal values may be shown once. Read-outs that look alike come from different tables or passages of the source.
Biological target: LMCA1 (Listeria monocytogenes serovar 1/2a, UniProt Q8Y8Q5)
Assay: biochemical
Assay type: biochemical

LMCA1, sequence (Q8Y8Q5 whole entry): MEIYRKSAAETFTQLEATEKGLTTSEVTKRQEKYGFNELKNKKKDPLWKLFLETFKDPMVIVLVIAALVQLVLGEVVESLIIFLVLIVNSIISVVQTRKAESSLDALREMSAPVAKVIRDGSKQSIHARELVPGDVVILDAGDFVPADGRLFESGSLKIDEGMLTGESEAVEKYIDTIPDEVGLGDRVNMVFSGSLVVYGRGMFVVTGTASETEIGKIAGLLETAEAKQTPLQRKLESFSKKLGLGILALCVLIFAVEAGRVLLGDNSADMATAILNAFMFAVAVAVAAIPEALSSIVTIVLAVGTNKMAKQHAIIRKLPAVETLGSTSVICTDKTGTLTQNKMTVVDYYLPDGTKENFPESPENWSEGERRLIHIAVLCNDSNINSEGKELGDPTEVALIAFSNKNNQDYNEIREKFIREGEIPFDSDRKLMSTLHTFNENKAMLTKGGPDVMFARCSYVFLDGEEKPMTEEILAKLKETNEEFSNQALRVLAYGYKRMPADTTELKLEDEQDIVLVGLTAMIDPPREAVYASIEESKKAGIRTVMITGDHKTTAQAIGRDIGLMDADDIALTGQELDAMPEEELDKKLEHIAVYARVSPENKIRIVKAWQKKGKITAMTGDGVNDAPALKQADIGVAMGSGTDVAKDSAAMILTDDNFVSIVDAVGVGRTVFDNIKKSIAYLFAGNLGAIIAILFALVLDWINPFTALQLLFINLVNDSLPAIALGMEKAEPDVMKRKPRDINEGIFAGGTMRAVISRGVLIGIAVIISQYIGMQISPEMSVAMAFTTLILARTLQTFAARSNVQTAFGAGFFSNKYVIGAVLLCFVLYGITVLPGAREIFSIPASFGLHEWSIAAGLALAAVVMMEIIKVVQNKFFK

## [Be+2] [BeSO4]
  IC50: 0.027 ± 0.005 mM
Absence of NaF (H2O)
  Hill coefficient: −0.72 ± 0.08
Constant NaF concentration of 0.5 mM
  Hill coefficient: −1.1 ± 0.1

## F [NaF]
  Hill coefficient: −2.4 and −2.4 ± 0.4
  IC50: 2.3 ± 0.2 mM

— publication PMC5697763 (Bioconjugate chemistry, 2016)
